Here are results for 5 molecules from PubChem BioAssay AID256 (DTP/NCI, 2004).

This assay concerns CD2F1 mice, L1210 leukemia ip, survival T/C. Nature of the assay: NCI In Vivo Anticancer Drug Screen. Data for tumor model L1210 Leukemia (intraperitoneal) in CD2F1 (CDF1) mice. As to conditions: higher = longer survival. An outline of the steps:
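Implant tumor; dose compound or vehicle; measure endpoint in both groups; report treated divided by control.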

The mark [1] stands for this setting: endpoint: mean survival time, dose: 50.0 mg/kg/injection, schedule: Q01DX009 (ip), vehicle: saline with Tween-80.
Where [2] appears, read: endpoint: mean survival time, dose: 100.0 mg/kg/injection, schedule: Q01DX009 (ip), vehicle: saline with Tween-80.
[3] abbreviates: endpoint: mean survival time, dose: 200.0 mg/kg/injection, schedule: Q01DX009 (ip), vehicle: saline with Tween-80.
The mark [4] stands for this setting: endpoint: mean survival time, dose: 100.0 mg/kg/injection, schedule: Q04DX003 (ip), vehicle: saline with Tween-80.

Values joined by “and” are separate entries in the source; they are usually repeats but may differ in a detail not shown here. Equal values may be shown once. Toxic doses and inconclusive results are not listed.

Consider `Nc1nc(=S)c2[nH]cnc2[nH]1`, for which the T/C is 110 % of control (endpoint: mean survival time, dose: 0.13 mg/kg/injection, schedule: Q01DX009 (ip), vehicle: other); 114 % of control and 120 % of control (endpoint: mean survival time, dose: 0.25 mg/kg/injection, schedule: Q01DX009 (ip), vehicle: alkali diluted with saline); 121 % of control (endpoint: mean survival time, dose: 0.25 mg/kg/injection, schedule: Q01DX009 (ip), vehicle: other); 116 % of control and 123 % of control (endpoint: mean survival time, dose: 0.38 mg/kg/injection, schedule: Q01DX009 (ip), vehicle: acid diluted with saline); 116 % of control (endpoint: mean survival time, dose: 0.5 mg/kg/injection, schedule: Q01DX005 (ip), vehicle: water); 124 % of control (endpoint: mean survival time, dose: 0.5 mg/kg/injection, schedule: Q01DX009 (ip), vehicle: alkali diluted with saline). Besides, the T/C (endpoint: mean survival time, dose: 0.5 mg/kg/injection, schedule: Q01DX009 (ip), vehicle: other) is 121 % of control; the T/C (endpoint: mean survival time, dose: 0.66 mg/kg/injection, schedule: Q01DX009 (ip), vehicle: clinical formulation) is 150 % of control; the T/C (endpoint: mean survival time, dose: 0.75 mg/kg/injection, schedule: Q01DX009 (ip), vehicle: acid diluted with saline) was 164 % of control; the T/C (endpoint: mean survival time, dose: 1.0 mg/kg/injection, schedule: Q01DX005 (ip), vehicle: alkali diluted with saline) was 163 % of control; the T/C (endpoint: mean survival time, dose: 1.0 mg/kg/injection, schedule: Q01DX005 (ip), vehicle: water) was 120 % of control; the T/C (endpoint: mean survival time, dose: 1.0 mg/kg/injection, schedule: Q01DX007 (ip), vehicle: saline) is 151 % of control. In addition, the T/C is 152 % of control (endpoint: mean survival time, dose: 1.0 mg/kg/injection, schedule: Q03DX003 (ip), vehicle: saline); 154 % of control (endpoint: mean survival time, dose: 1.0 mg/kg/injection, schedule: Q04DX003 (ip), vehicle: saline); 116 % of control and 118 % of control (endpoint: mean survival time, dose: 1.12 mg/kg/injection, schedule: Q04DX003 (ip), vehicle: acid diluted with saline); 152 % of control and 153 % of control (endpoint: mean survival time, dose: 1.2 mg/kg/injection, schedule: Q01DX009 (ip), vehicle: alkali diluted with saline); 150 % of control (endpoint: mean survival time, dose: 1.47 mg/kg/injection, schedule: Q01DX009 (ip), vehicle: clinical formulation); 158 % of control (endpoint: mean survival time, dose: 1.47 mg/kg/injection, schedule: Q01DX009 (ip), vehicle: saline). In addition, the T/C is 164 % of control and 171 % of control and 180 % of control (endpoint: mean survival time, dose: 1.5 mg/kg/injection, schedule: Q01DX009 (ip), vehicle: acid diluted with saline); 159 % of control (endpoint: mean survival time, dose: 1.56 mg/kg/injection, schedule: Q01DX005 (ip), vehicle: alkali diluted with saline); 151 % of control (endpoint: mean survival time, dose: 1.8 mg/kg/injection, schedule: Q01DX009 (ip), vehicle: alkali diluted with saline); 158 % of control (endpoint: mean survival time, dose: 2.0 mg/kg/injection, schedule: Q01DX005 (ip), vehicle: alkali diluted with saline); 160 % of control (endpoint: mean survival time, dose: 2.0 mg/kg/injection, schedule: Q03DX003 (ip), vehicle: saline); 122 % of control (endpoint: mean survival time, dose: 2.0 mg/kg/injection, schedule: Q04DX003 (ip), vehicle: alkali diluted with saline). For the same molecule, the T/C was 160 % of control (endpoint: mean survival time, dose: 2.0 mg/kg/injection, schedule: Q04DX003 (ip), vehicle: saline); 155 % of control (endpoint: mean survival time, dose: 2.2 mg/kg/injection, schedule: Q01DX009 (ip), vehicle: clinical formulation); 536 % of control (endpoint: mean survival time, dose: 3.0 mg/kg/injection, schedule: Q01DX009 (ip), vehicle: alkali diluted with saline); 188 % of control (endpoint: mean survival time, dose: 3.12 mg/kg/injection, schedule: Q01DX005 (ip), vehicle: alkali diluted with saline); 150 % of control (endpoint: mean survival time, dose: 4.0 mg/kg/injection, schedule: Q01DX005 (ip), vehicle: alkali diluted with saline); 152 % of control (endpoint: mean survival time, dose: 4.0 mg/kg/injection, schedule: Q01DX007 (ip), vehicle: saline). For the same molecule, the T/C is 122 % of control (endpoint: mean survival time, dose: 4.0 mg/kg/injection, schedule: Q01DX009 (ip), vehicle: acid diluted with saline); 156 % of control (endpoint: mean survival time, dose: 4.0 mg/kg/injection, schedule: Q03DX003 (ip), vehicle: saline); 176 % of control (endpoint: mean survival time, dose: 4.0 mg/kg/injection, schedule: Q04DX003 (ip), vehicle: saline); 161 % of control (endpoint: mean survival time, dose: 4.5 mg/kg/injection, schedule: Q04DX003 (ip), vehicle: acid diluted with saline); 159 % of control (endpoint: mean survival time, dose: 6.25 mg/kg/injection, schedule: Q01DX005 (ip), vehicle: alkali diluted with saline); 166 % of control (endpoint: mean survival time, dose: 9.0 mg/kg/injection, schedule: Q04DX003 (ip), vehicle: acid diluted with saline). The T/C by setting is: (endpoint: mean survival time, dose: 12.5 mg/kg/injection, schedule: Q01DX005 (ip), vehicle: alkali diluted with saline) 119 % of control; (endpoint: mean survival time, dose: 18.0 mg/kg/injection, schedule: Q04DX003 (ip), vehicle: acid diluted with saline) 176 % of control; (endpoint: mean survival time, dose: 20.0 mg/kg/injection, schedule: Q04DX003 (ip), vehicle: alkali diluted with saline) 152 % of control; (endpoint: mean survival time, dose: 23.0 mg/kg/injection, schedule: Q01DX001 (ip), vehicle: alkali diluted with saline) 158 % of control; (endpoint: mean survival time, dose: 25.0 mg/kg/injection, schedule: Q01DX005 (ip), vehicle: alkali diluted with saline) 96 % of control; (endpoint: mean survival time, dose: 31.0 mg/kg/injection, schedule: Q01DX001 (ip), vehicle: alkali diluted with saline) 161 % of control. Also, the T/C is 167 % of control (endpoint: mean survival time, dose: 47.0 mg/kg/injection, schedule: Q01DX001 (ip), vehicle: alkali diluted with saline); 152 % of control and 154 % of control (endpoint: median survival time, dose: 0.86 mg/kg/injection, schedule: Q01DX009 (ip), vehicle: acid diluted with saline); 160 % of control (endpoint: median survival time, dose: 1.44 mg/kg/injection, schedule: Q01DX009 (ip), vehicle: acid diluted with saline); 158 % of control (endpoint: median survival time, dose: 2.4 mg/kg/injection, schedule: Q01DX009 (ip), vehicle: acid diluted with saline); 159 % of control (endpoint: median survival time, dose: 2.7 mg/kg/injection, schedule: Q04DX003 (ip), vehicle: alkali diluted with saline); 151 % of control and 152 % of control (endpoint: median survival time, dose: 4.0 mg/kg/injection, schedule: Q01DX009 (ip), vehicle: acid diluted with saline). Also, the T/C by setting is: (endpoint: median survival time, dose: 4.5 mg/kg/injection, schedule: Q04DX003 (ip), vehicle: alkali diluted with saline) 172 % of control; (endpoint: median survival time, dose: 7.5 mg/kg/injection, schedule: Q04DX003 (ip), vehicle: alkali diluted with saline) 191 % of control; (endpoint: median survival time, dose: 12.5 mg/kg/injection, schedule: Q04DX003 (ip), vehicle: alkali diluted with saline) 187 % of control; (endpoint: median survival time, dose: 20.0 mg/kg/injection, schedule: Q04DX003 (ip), vehicle: alkali diluted with saline) 151 % of control; (endpoint: median survival time, dose: 20.83 mg/kg/injection, schedule: Q04DX003 (ip), vehicle: alkali diluted with saline) 166 % of control; (endpoint: median survival time, dose: 40.0 mg/kg/injection, schedule: Q01DX001 (ip), vehicle: alkali diluted with saline) 150 % of control and 161 % of control. Moreover, under “endpoint: median survival time, dose: 60.0 mg/kg/injection, schedule: Q01DX001 (ip), vehicle: alkali diluted with saline”, the T/C was 183 % of control.

For the molecule `CC1=NN(c2cccc(S(=O)(=O)O)c2)C(=O)C1N=Nc1cc(Cl)cc(S(=O)(=O)O)c1O.CC1=NN(c2cccc(S(=O)(=O)O)c2)C(=O)C1N=Nc1cc(Cl)cc(S(=O)(=O)O)c1O.[Cr]` (stereo not given), the T/C runs as follows: (endpoint: median survival time, dose: 25.0 mg/kg/injection, schedule: Q01DX009 (ip), vehicle: saline) 113 % of control; (endpoint: median survival time, dose: 50.0 mg/kg/injection, schedule: Q01DX009 (ip), vehicle: saline) 107 % of control; (endpoint: median survival time, dose: 100.0 mg/kg/injection, schedule: Q01DX009 (ip), vehicle: saline) 101 % of control; (endpoint: median survival time, dose: 200.0 mg/kg/injection, schedule: Q01DX009 (ip), vehicle: saline) 118 % of control; (endpoint: median survival time, dose: 400.0 mg/kg/injection, schedule: Q01DX009 (ip), vehicle: saline) 120 % of control.

For the molecule `O=C1OC(=O)C2C3C=CC(C4C=CC43)C12` (stereo not given), the T/C under setting [1] is 102 % of control; the T/C (endpoint: mean survival time, dose: 100.0 mg/kg/injection, schedule: Q01DX001 (ip), vehicle: saline with Tween-80) is 101 % of control; the T/C under setting [2] is 102 % of control; the T/C (endpoint: mean survival time, dose: 200.0 mg/kg/injection, schedule: Q01DX001 (ip), vehicle: saline with Tween-80) was 98 % of control; the T/C under setting [3] is 97 % of control.

On to `COc1ccc2c(c1)C/C(=N\O)C2=O`, for which the T/C (endpoint: mean survival time, dose: 25.0 mg/kg/injection, schedule: Q01DX009 (ip), vehicle: saline with Tween-80) was 93 % of control; the T/C (endpoint: mean survival time, dose: 25.0 mg/kg/injection, schedule: Q04DX003 (ip), vehicle: saline with Tween-80) was 95 % of control; the T/C under setting [1] was 97 % of control; the T/C (endpoint: mean survival time, dose: 50.0 mg/kg/injection, schedule: Q04DX003 (ip), vehicle: saline with Tween-80) was 93 % of control; the T/C under setting [4] was 91 % of control.

As to `CC(C)(CCl)C(=O)O`, the T/C is, setting by setting: under setting [1], 110 % of control; under setting [2], 104 % of control; under setting [4], 100 % of control; under setting [3], 93 % of control; (endpoint: mean survival time, dose: 200.0 mg/kg/injection, schedule: Q04DX003 (ip), vehicle: saline with Tween-80) 104 % of control.
